# Laboratory results reported in patent publication US6991794B1, “Progenitor cell preservation factors and methods for and products of their use” (ImClone Systems Incorporated, priority 1997, dated 2006).
# T1: Dl-FRIL (Lablab purpureus, UniProt Q9ZTA9)
# T1 sequence (Q9ZTA9 9-272): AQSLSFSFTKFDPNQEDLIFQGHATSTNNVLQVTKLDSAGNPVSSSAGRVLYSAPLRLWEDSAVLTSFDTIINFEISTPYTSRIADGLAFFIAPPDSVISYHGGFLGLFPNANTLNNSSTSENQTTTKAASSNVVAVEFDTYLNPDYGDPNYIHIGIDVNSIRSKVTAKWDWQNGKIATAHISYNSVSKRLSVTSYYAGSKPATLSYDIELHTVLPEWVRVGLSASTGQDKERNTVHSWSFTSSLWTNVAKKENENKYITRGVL
# T1 sequence (Q9ZTA9 125-272 limits assumed): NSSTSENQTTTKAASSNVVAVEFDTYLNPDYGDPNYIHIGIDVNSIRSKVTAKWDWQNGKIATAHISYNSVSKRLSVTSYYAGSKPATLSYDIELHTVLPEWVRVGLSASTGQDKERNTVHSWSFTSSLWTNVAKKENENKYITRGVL
# T2: murine extracellular domain of the Flt3 receptor fused to the transmembrane and intracellular domains of the human Fms (UniProt P07333+Q00342, A795S/A899S/C564L/C654D/C793H/C831G/D601N/D652H/D673E/D898N/DEL545-556/DEL576-597/DEL711-780/E609N/E612Q/E649S/E789R/E803A/E806A/E865D/F571P/F692T/F788L/F807S/G637D/G866C/H565Y/H671Q/H824N/I560L/I563L/I633L/I640L/I867V/I870V/INS558VACMSIMALLLL/INS573QVRWKII/INS599GNSYTFIDPTQLP/INS709AMLGPSLSPGQDPEGGVDYKNIHLEKKYVRRDSGFSSQGVDTYVEMRPVSTSSNDSFSEQDLD/K569Q/K650T/K800Q/K826H/K871Q/L602E/L684H/L690V/L783G/L815V/L840M/L863I/M626V/M665I/N627E/N784R/N900K/P896L/Q570K/Q641K/R572K/R624K/R708A/R848K/S619A/S634G/S639V/S653A/S685G/S706R/S809N/S841N/S844N/T636E/T667S/T787E/V561L/V616T/V638A/V785P/V811I/V822L/V828A/V846I/V889L/Y631F/Y689L/Y703F/Y796S)
# T2 construct: consisting of the murine extracellular domain of the Flt3 receptor fused to the transmembrane and intracellular domains of the human Fms; expressed in transfected cells; host or cells: NIH 3T3 (mFlt3/Fms 3T3 cell line, provided by Dr. Ihor Lemischka)
# T2 sequence (Q00342+P07333 with tags, fused parts or gaps Q00342:DEL545-556/Q00342:INS558VACMSIMALLLL/Q00342:I560L/Q00342:V561L/Q00342:I563L/Q00342:C564L/Q00342:H565Y/Q00342:K569Q/Q00342:Q570K/Q00342:F571P/Q00342:R572K/Q00342:INS573QVRWKII/Q00342:DEL576-597/Q00342:INS599GNSYTFIDPTQLP/Q00342:D601N/Q00342:L602E/Q00342:E609N/Q00342:E612Q/Q00342:V616T/Q00342:S619A/Q00342:R624K/Q00342:M626V/Q00342:N627E/Q00342:Y631F/Q00342:I633L/Q00342:S634G/Q00342:T636E/Q00342:G637D/Q00342:V638A/Q00342:S639V/Q00342:I640L/Q00342:Q641K/Q00342:E649S/Q00342:K650T/Q00342:D652H/Q00342:S653A/Q00342:C654D/Q00342:M665I/Q00342:T667S/Q00342:H671Q/Q00342:D673E/Q00342:L684H/Q00342:S685G/Q00342:Y689L/Q00342:L690V/Q00342:F692T/Q00342:Y703F/Q00342:S706R/Q00342:R708A/Q00342:INS709AMLGPSLSPGQDPEGGVDYKNIHLEKKYVRRDSGFSSQGVDTYVEMRPVSTSSNDSFSEQDLD/Q00342:DEL711-780/Q00342:L783G/Q00342:N784R/Q00342:V785P/Q00342:T787E/Q00342:F788L/Q00342:E789R/Q00342:C793H/Q00342:A795S/Q00342:Y796S/Q00342:K800Q/Q00342:E803A/Q00342:E806A/Q00342:F807S/Q00342:S809N/Q00342:V811I/Q00342:L815V/Q00342:V822L/Q00342:H824N/Q00342:K826H/Q00342:V828A/Q00342:C831G/Q00342:L840M/Q00342:S841N/Q00342:S844N/Q00342:V846I/Q00342:R848K/Q00342:L863I/Q00342:E865D/Q00342:G866C/Q00342:I867V/Q00342:I870V/Q00342:K871Q/Q00342:V889L/Q00342:P896L/Q00342:D898N/Q00342:A899S/Q00342:N900K): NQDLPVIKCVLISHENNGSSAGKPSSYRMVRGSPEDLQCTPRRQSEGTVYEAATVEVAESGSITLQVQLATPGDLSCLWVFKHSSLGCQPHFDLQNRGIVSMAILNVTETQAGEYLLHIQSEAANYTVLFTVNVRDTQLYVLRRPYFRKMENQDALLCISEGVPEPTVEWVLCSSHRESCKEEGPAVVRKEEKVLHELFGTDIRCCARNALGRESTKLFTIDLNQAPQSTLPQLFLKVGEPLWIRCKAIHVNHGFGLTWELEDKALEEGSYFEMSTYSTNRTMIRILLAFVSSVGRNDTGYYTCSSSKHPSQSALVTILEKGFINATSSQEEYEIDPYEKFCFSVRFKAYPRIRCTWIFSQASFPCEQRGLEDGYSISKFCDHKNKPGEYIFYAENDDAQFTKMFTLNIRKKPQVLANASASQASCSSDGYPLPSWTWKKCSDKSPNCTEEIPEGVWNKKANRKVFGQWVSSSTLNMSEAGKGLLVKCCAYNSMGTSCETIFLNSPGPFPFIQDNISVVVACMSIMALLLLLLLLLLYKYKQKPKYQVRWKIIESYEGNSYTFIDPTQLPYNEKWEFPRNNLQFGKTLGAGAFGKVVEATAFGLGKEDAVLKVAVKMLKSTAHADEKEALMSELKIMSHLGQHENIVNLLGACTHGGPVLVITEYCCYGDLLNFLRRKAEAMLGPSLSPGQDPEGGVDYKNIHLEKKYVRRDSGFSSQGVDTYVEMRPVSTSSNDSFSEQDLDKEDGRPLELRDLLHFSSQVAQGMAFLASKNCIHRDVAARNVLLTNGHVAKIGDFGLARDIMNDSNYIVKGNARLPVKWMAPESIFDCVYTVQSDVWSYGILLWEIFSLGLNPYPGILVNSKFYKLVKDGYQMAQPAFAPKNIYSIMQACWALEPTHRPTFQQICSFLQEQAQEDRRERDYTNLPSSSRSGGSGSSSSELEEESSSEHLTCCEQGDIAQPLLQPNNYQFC
# B1: M-CSF: Recombinant human M-CSF, ligand of the Fms receptor (protein)
# chain: EEVSEYCSHMIGSGHLQSLQRLIDSQMETSCQITFEFVDQEQLKDPVCYLKKAFLLVQDIMEDTMRFRDNTPNAIAIVQLQELSLRLKSCFTKDYEEHDKACVRTFYETPLQLLEKVKNVFNETKNLLDKDWNIFSKNCNNSFAECSSQDVVTKPDCN
# Legend:
# [1] = single dose 150 mg/kg (Lerner and Harrison); cited from earlier work
# [2] = murine 5-FU chemoprotection model; conditions: 150 mg/kg intraperitoneally
# Experimental: Administration of a second dose of 5-FU (also at 150 mg/kg) 3-7 days after the initial dose killed those stem cells and progenitors recruited into S-phase in response to the first treatment of 5-FU (Lerner and Harrison, supra).
# Since FRIL and cytokines act on progenitors in the same concentration range (ng/ml), this pretreatment dose regimen was used to test whether Dl-FRIL can protect mice from 5-FU administered at 2 intervals in the first week: 5-FU (150 mg/kg) was injected at day 0 and then a second dose (also at 150 mg/kg) was injected either on day 3 (d0/3 dose interval) or day 5 (d0/5 dose interval).
# Weight-matched BALB/c mice (10 mice/group) were injected intravenously with either with 0.2 mL of Dl-FRIL (500 mg/mL) or 0.2 mL of HBSS daily for 4 days. Two hours after the final treatment of Dl-FRIL, mice were injected intraperitoneally with 5-FU (150 mg/kg). Groups of mice received a second dose of 5-FU (150 mg/kg) at either day 3 or day 5.
# Dl-FRIL = target: T1, Dl-FRIL; conditions: Mo et al., Glycobiology 1999; cited from earlier work
# untransfected 3T3 cells = experiment: untransfected parent 3T3 control cells (XTT); format: cell-based; conditions: Example 5 serum-free conditions
# Experimental: Specifically, 3T3 cells cultured in tissue culture plates (Becton Dickinson Labware, Lincoln Park, N.J.) were removed from the plates by washing cells twice in Hank's buffered saline solution (HBSS; Gibco Laboratories, Grand Island, N.Y.). Non-enzymatic cell dissociation buffer (Gibco) was added for 15 minutes at room temperature. The resulting cells were washed in medium. FLT3 3T3 cells were cultured at a final concentration of 3,000 cells per well in a volume of 100 μL of serum-defined medium containing […] rhIL1-α, 10% AIMV (Gibco, Grand Island, N.Y.) and 90% Dulbecco's modification of Eagle's medium (DMEM; Gibco) in 96 well plates. […] Proliferation and cell survival was quantitated by addition of XTT (2, 3-bis[Methoxy-4-nitro-5sulfophenyl]-2H-tetrazolium-5 carboxanilide inner salt) (Diagnostic Chemicals Ltd, Charlottetown, Prince Edward Island, Canada), which is a […] cleaved by actively respiring cells (Roehm et al., J. Immunol. Methods 142: 257-265, 1991). Proliferation and cell survival was quantitated spectrophotometrically using a Vmax kinetic plate reader (Molecular Devices Corp., Mountain View, Calif.), and recorded as either relative activity (units/mL) or as specific activity (units/mg). One unit of biological activity was defined as the reciprocal dilution at which half-maximal stimulation of cells is detected. […]
# [3] = target: T2, murine extracellular domain of the Flt3 receptor fused to the transmembrane and intracellular domains of the human Fms; experiment: mFlt3/Fms 3T3 biological screening assay (XTT); format: cell-based
# Text: A biological screening assay to search for novel stimulators of the Flt3 receptor was developed using NIH 3T3 cells transfected with expression vectors containing cDNA of murine and human Flt3 and the related Fms receptor. The mFlt3/Fms 3T3 cell line is a 3T3 cell line transfected with nucleic acid encoding a fusion protein consisting of the murine extracellular domain of the Flt3 receptor fused to the transmembrane and intracellular domains of the human Fms (provided by Dr. Ihor Lemischka, Princeton University, Princeton, N.J.). The Stk 3T3 cell line is a 3T3 cell line transfected with the full-length human Flt3 receptor (provided by Dr. Donald Small, Johns Hopkins University, Baltimore, Md.). The human FMS 3T3 cell line is a 3T3 cell line transfected with the full-length human Fms receptor (provided by Dr. Charles Sherr, Saint Jude Children's Research Hospital, Memphis, Tenn. Parent 3T3 cells were purchased from American Type Culture Collection (“ATCC”; Manassas, Va.). Receptor-transfected cells contained Neo resistance genes and were maintained in medium containing 750 µg/ml of G418 (Life Technologies, Rockville, Md.).
# To create factor-dependence for receptor-transfected 3T3 cells, growth conditions were compromised to permit only ligands to rescue cells from death. To do this, 3T3 cell lines were assayed in 96 well plates (Becton Dickinson Labware, Lincoln Park, N.J.) containing 3,000 cells in 100 μL of serum-free medium consisting of 10% AIMV (Life Technologies) and 90% DMEM. In each experiment, samples were serially diluted two-fold across rows starting at a 1:10 dilution. Viable cells were quantitated after 3-5 days by XTT (2,3-bis[Methoxy-4-nitro-5sulfophenyl]-2H-tetrazolium-5 carboxanilide inner salt) (Sigma, St. Louis, Mo.) (Roehm et al., supra). Relative activity (units/ml) and specific activity (units/mg) are defined as the reciprocal dilution at which half-maximal stimulation of cells was detected.
# [4] = target: T3, full-length human Fms receptor (Homo sapiens, UniProt P07333); experiment: Fms 3T3 biological screening assay (XTT); format: cell-based
# T3 construct: The human FMS 3T3 cell line is a 3T3 cell line transfected with the full-length human Fms receptor; expressed in transfected cells; host or cells: NIH 3T3 (FMS 3T3 cell line, provided by Dr. Charles Sherr)
# Text: A biological screening assay to search for novel stimulators of the Flt3 receptor was developed using NIH 3T3 cells transfected with expression vectors containing cDNA of murine and human Flt3 and the related Fms receptor. The mFlt3/Fms 3T3 cell line is a 3T3 cell line transfected with nucleic acid encoding a fusion protein consisting of the murine extracellular domain of the Flt3 receptor fused to the transmembrane and intracellular domains of the human Fms (provided by Dr. Ihor Lemischka, Princeton University, Princeton, N.J.). The Stk 3T3 cell line is a 3T3 cell line transfected with the full-length human Flt3 receptor (provided by Dr. Donald Small, Johns Hopkins University, Baltimore, Md.). […]
# To create factor-dependence for receptor-transfected 3T3 cells, growth conditions were compromised to permit only ligands to rescue cells from death. […] Viable cells were quantitated after 3-5 days by XTT (2,3-bis[Methoxy-4-nitro-5sulfophenyl]-2H-tetrazolium-5 carboxanilide inner salt) (Sigma, St. Louis, Mo.) (Roehm et al., supra). Relative activity (units/ml) and specific activity (units/mg) are defined as the reciprocal dilution at which half-maximal stimulation of cells was detected. […]
# T3 sequence (P07333 20-972): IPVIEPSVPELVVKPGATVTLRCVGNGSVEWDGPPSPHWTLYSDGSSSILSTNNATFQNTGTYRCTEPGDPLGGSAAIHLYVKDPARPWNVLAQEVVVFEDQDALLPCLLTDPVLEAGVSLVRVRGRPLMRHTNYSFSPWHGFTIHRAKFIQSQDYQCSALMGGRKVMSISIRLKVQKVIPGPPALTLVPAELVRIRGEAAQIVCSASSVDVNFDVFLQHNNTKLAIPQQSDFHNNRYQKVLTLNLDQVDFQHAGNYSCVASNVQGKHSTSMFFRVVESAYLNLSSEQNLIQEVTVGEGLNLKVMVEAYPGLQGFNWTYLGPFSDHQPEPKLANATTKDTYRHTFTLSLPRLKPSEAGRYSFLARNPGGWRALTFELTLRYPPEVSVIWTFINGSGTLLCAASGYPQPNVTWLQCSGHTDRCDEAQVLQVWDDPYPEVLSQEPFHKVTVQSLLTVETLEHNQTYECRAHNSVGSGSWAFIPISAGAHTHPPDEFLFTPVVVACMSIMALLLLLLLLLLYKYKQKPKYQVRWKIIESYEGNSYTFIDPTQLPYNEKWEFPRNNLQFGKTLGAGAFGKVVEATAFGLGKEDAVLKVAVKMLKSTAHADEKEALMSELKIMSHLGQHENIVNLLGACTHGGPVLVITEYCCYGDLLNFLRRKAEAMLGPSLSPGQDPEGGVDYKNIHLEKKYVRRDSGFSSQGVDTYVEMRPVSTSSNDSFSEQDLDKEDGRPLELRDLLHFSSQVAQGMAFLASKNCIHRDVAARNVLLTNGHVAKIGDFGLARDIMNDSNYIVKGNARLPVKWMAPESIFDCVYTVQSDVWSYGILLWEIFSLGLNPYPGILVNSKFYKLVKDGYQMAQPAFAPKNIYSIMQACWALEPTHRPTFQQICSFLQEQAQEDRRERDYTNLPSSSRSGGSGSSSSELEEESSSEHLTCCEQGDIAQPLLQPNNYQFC
molecule,measurement,setting,value
"O=c1[nH]cc(F)c(=O)[nH]1 [5-FU, 5-fluorouracil]",reduction of bone marrow cellularity,[1],> 90%
same,deaths from a single dose,[2],No mice died
"OC[C@H]1O[C@H](O[C@H]2O[C@H](CO)[C@@H](O)[C@H](O)[C@H]2O)[C@H](O)[C@@H](O)[C@@H]1O [α,α-trehalose]",potency relative to mannose,Dl-FRIL,3.6 fold
B1,response of parent untransfected 3T3 cells,untransfected 3T3 cells,Neither the mFlt3/Fms 3T3 cells nor the parent untransfected 3T3 cells responded
same,response of mFlt3/Fms 3T3 cells,[3],Neither the mFlt3/Fms 3T3 cells nor the parent untransfected 3T3 cells responded
same,response of Fms 3T3 cells,[4],responded to M-CSF in a dose-responsive manner
